Patent US9302999B2, “Substituted triazoles as herbicides” (E. I. DU PONT DE NEMOURS AND COMPANY, priority 2012, dated 2016)

Key:
Type in all cases: in vivo
[1] = system: smallflower umbrella sedge (CYPDI, Cyperus difformis); assay: Test G paddy, alone and in combination: smallflower umbrella sedge; details: evaluated after 14 days
Method: (§1) Seeds of smallflower umbrella sedge (CYPDI, Cyperus difformis) and ducksalad (HETLI, Heteranthera limosa) were sown on the soil surface in two separate quadrants of 11 cm tubs filled with steam pasteurized Tama soil. Simultaneously, plantings of barnyardgrass (ECHCG, Echinochloa crus-galli) and japonica rice (ORYSP, Oryza sativa) were established in separate “plug” flats. Plants were grown in a greenhouse using supplemental lighting to maintain a photoperiod of approximately 16 h; daytime and nighttime temperatures were approximately 27-30° C. and 19-22° C., respectively. After 8 days, barnyardgrass plants were transplanted to one of the remaining quadrants of the tub, and the water level was adjusted to a final depth of 3 cm. Herbicide application timing was targeted at the 2.0 to 2.5 leaf stage and the plants were treated with test chemicals formulated in a non-phytotoxic solvent. Treated plants and controls were maintained in a greenhouse for 14 days, after which time all species were compared to controls and visually evaluated. Plant response ratings are summarized in Tables G1 through G3, and are based on a scale of 0 to 100 where 0 is no effect and 100 is complete control. A dash (-) response means no test result.

[2] = system: barnyardgrass (ECHCG, Echinochloa crus-galli); assay: Test G paddy, alone and in combination: barnyardgrass; details: evaluated after 14 days
Method: as §1

[3] = system: japonica rice (ORYSP, Oryza sativa); assay: Test G paddy, alone and in combination: japonica rice; details: evaluated after 14 days
Method: as §1

[4] = system: ducksalad (HETLI, Heteranthera limosa); assay: Test G paddy, alone and in combination: ducksalad; details: evaluated after 14 days
Method: as §1

[5] = system: morningglory (Ipomoea coccinea); assay: Test E pre-/postemergence: morningglory; details: Preemergence, scale 0 to 100
Excerpt: Seeds of plant species selected from corn (Zea mays), soybean (Glycine max), velvetleaf (Abutilon theophrasti), lambsquarters (Chenopodium album), poinsettia, wild (wild poinsettia, Euphorbia heterophylla), pigweed, palmer (palmer pigweed, Amaranthus palmeri), waterhemp (common waterhemp, Amaranthus rudis), smartweed (ladysthumb smartweed, Polygonum persicaria), surinam grass (Brachiaria decumbens), crabgrass, large (large crabgrass, Digitaria sanguinalis), crabgrass, Brazil (Brazilian crabgrass, Digitaria horizontalis), panicum, fall (fall panicum, Panicum dichotomiflorum), foxtail, giant (giant foxtail, Setaria faberii), foxtail, green (green foxtail, Setaria viridis), goosegrass (Eleusine indica), johnsongrass (Sorghum halepense), ragweed (common ragweed, Ambrosia elation), barnyardgrass (Echinochloa crus-galli), sandbur (southern sandbur, Cenchrus echinatus), arrowleaf sida (Sida rhombifolia), ryegrass, Italian (Italian ryegrass, Lolium multiflorum), dayflower, (VA) (Virginia dayflower, Commelina virginica), field bindweed (Convolvulus arvensis), cocklebur (common cocklebur, Xanthium strumarium), morningglory (Ipomoea coccinea), nightshade (eastern black nightshade, Solanum ptycanthum), kochia (Kochia scoparia), nutsedge, yellow (yellow nutsedge, Cyperus esculentus) and beggarticks (hairy beggarticks, Bidens pilosa) were planted into a silt loam soil and treated preemergence with test chemicals formulated in a non-phytotoxic solvent mixture which included a surfactant. At the same time, plants selected from these crop and weed species were planted in pots containing a growing medium comprising spaghnum peat moss, vermiculite, wetting agent and starter nutrients and treated with postemergence applications of some of the test chemicals formulated in the same manner. Plants ranged in height from 2 to 18 cm for postemergence treatments (1- to 4-leaf stage).
(§2) Treated plants and controls were maintained in a greenhouse for 14 to 21 days, after which time all species were compared to controls and visually evaluated. Plant response ratings, summarized in Table E, are based on a scale of 0 to 100 where 0 is no effect and 100 is complete control. A dash (-) response means no test result.

[6] = system: waterhemp_RES2 (ALS/HPPD resistant common waterhemp, Amaranthus rudis); assay: Test F postemergence: waterhemp_RES2; details: scale 0 to 100
Excerpt: Seeds of plant species selected from corn (Zea mays), soybean (Glycine max), velvetleaf (Abutilon theophrasti), lambsquarters (Chenopodium album), poinsettia, wild (wild poinsettia, Euphorbia heterophylla), pigweed, palmer (palmer pigweed, Amaranthus palmeri), waterhemp (common waterhemp, Amaranthus rudis), surinam grass (Brachiaria decumbens), crabgrass, Brazil (Brazilian crabgrass, Digitaria horizontalis), panicum, fall (fall panicum Panicum dichotomiflorum), crabgrass, large (large crabgrass, Digitaria sanguinalis), foxtail, giant (giant foxtail, Setaria faberii), foxtail, green (green foxtail Setaria viridis), goosegrass (Eleusine indica), ragweed (common ragweed, Ambrosia elatior), barnyardgrass (Echinochloa crus-galli), sandbur (southern sandbur, Cenchrus echinatus), arrowleaf sida (Sida rhombifolia), ryegrass, Italian (Italian ryegrass, Lolium multiflorum), dayflower, VA (Virginia (VA) dayflower, Commelina virginica), field bindweed (Convolvulus arvensis), cocklebur (common cocklebur, Xanthium strumarium), morningglory (Ipomoea coccinea), nightshade (eastern black nightshade, Solanum ptycanthum), kochia (Kochia scoparia), nutsedge, yellow (yellow nutsedge, Cyperus esculentus), johnsongrass (Sorghum halepense), smartweed (ladysthumb smartweed, Polygonum persicaria), and beggarticks (hairy beggarticks, Bidens pilosa), were planted into a silt loam soil and treated preemergence with test chemicals formulated in a non-phytotoxic solvent mixture which included a surfactant. At the same time, plants selected from these crop and weed species and also pigweed (Amaranthus retroflexus), waterhemp_RES1 (ALS/Triazine resistant common waterhemp, Amaranthus rudis) and waterhemp_RES2 (ALS/HPPD resistant common waterhemp, Amaranthus rudis) were planted in pots containing a planting medium comprising spaghnum peat moss, vermiculite, wetting agent and starter nutrients treated with postemergence applications of some of the test chemicals formulated in the same manner. Plants ranged in height from 2 to 18 cm for postemergence treatments (1- to 4-leaf stage).
as §2

Waterhemp = assay: Test C preemergence: waterhemp; details: scale 0 (no effect) to 100 (complete control)

Cc1nn(-c2ccc(F)cc2)nc1Cc1ccnc(C(F)(F)F)c1 [Compound 16, 4-[[2-(4-fluorophenyl)-5-methyl-2H-1,2,3-triazol-4-yl]methyl]-2-(trifluoromethyl)pyridine]
CYPDI plant response rating (scale of 0 to 100) ([1]; Rate 8 g/ha): 85 | CYPDI plant response rating (scale of 0 to 100) ([1]; Rate 16 g/ha): 85 | ECHCG plant response rating (scale of 0 to 100) ([2]; Rate 8 g/ha): 25 | ECHCG plant response rating (scale of 0 to 100) ([2]; Rate 16 g/ha): 35 | ORYSP plant response rating (scale of 0 to 100) ([3]; Rate 8 g/ha): 10 | ORYSP plant response rating (scale of 0 to 100) ([3]; Rate 16 g/ha): 15 | HETLI plant response rating (scale of 0 to 100) ([4]; Rate 8 g/ha): 0 | HETLI plant response rating (scale of 0 to 100) ([4]; Rate 16 g/ha): 60

Cc1nn(-c2ccc(C(F)(F)F)cc2)nc1Cc1ccnc(C(F)(F)F)c1 [Compound 47, 4-[[5-methyl-2-[4-(trifluoromethyl)phenyl]-2H-1,2,3-triazol-4-yl]methyl]-2-(trifluoromethyl)pyridine]
Plant response rating: Morningglory ([5]; 16 g ai/ha): 15 | Plant response rating: Morningglory ([5]; 31 g ai/ha): 30 | Plant response rating: Morningglory ([5]; 62 g ai/ha): 35 | Plant response rating: Morningglory ([5]; 125 g ai/ha): 40 | Plant response rating: Morningglory ([5]; 250 g ai/ha): 65

Cc1nn(-c2ccc(F)cc2)nc1Oc1ccnc(C(F)(F)F)c1 [Compound 129, 4-[[2-(4-fluorophenyl)-5-methyl-2H-1,2,3-triazol-4-yl]oxy]-2-(trifluoromethyl)pyridine]
CYPDI plant response rating (scale of 0 to 100) ([1]; Rate 16 g/ha): 0 | CYPDI plant response rating (scale of 0 to 100) ([1]; Rate 31 g/ha): 75 | CYPDI plant response rating (scale of 0 to 100) ([1]; Rate 32 g/ha): 48 | Plant response rating: Morningglory ([5]; 8 g ai/ha): 0 | Plant response rating: Morningglory ([5]; 16 g ai/ha): 0 | Plant response rating: Morningglory ([5]; 31 g ai/ha): 0 | Plant response rating: Morningglory ([5]; 62 g ai/ha): 40 | Plant response rating: Morningglory ([5]; 125 g ai/ha): 50 | ECHCG plant response rating (scale of 0 to 100) ([2]; Rate 16 g/ha): 0 | ECHCG plant response rating (scale of 0 to 100) ([2]; Rate 31 g/ha): 15 | ECHCG plant response rating (scale of 0 to 100) ([2]; Rate 32 g/ha): 5 | ORYSP plant response rating (scale of 0 to 100) ([3]; Rate 16 g/ha): 0 | ORYSP plant response rating (scale of 0 to 100) ([3]; Rate 31 g/ha): 5 | ORYSP plant response rating (scale of 0 to 100) ([3]; Rate 32 g/ha): 10 | HETLI plant response rating (scale of 0 to 100) ([4]; Rate 16 g/ha): 0 | HETLI plant response rating (scale of 0 to 100) ([4]; Rate 31 g/ha): 40 | HETLI plant response rating (scale of 0 to 100) ([4]; Rate 32 g/ha): 25

Cc1nn(-c2ccc(F)c(F)c2)nc1Oc1ccnc(C(F)(F)F)c1 [Compound 145]
Plant response rating, Waterhemp, Res2 ([6]; 125 g ai/ha): 85

Cc1nn(-c2ccc(C(F)(F)F)c(F)c2)nc1Cc1ccnc(C(F)(F)F)c1 [Compound 162]
Plant response rating, Waterhemp, Res2 ([6]; 4 g ai/ha): 75 | Plant response rating, Waterhemp, Res2 ([6]; 8 g ai/ha): 90 | Plant response rating, Waterhemp, Res2 ([6]; 16 g ai/ha): 90 | Plant response rating, Waterhemp, Res2 ([6]; 31 g ai/ha): 95 | Plant response rating, Waterhemp, Res2 ([6]; 62 g ai/ha): 100

CCc1nn(-c2ccc(F)cc2)nc1Oc1ccnc(C(F)(F)F)c1 [Compound 166]
Plant response rating, Waterhemp (Waterhemp; 31 g ai/ha): 55

CCOc1nn(-c2ccc(Br)cc2)nc1Cc1ccnc(C(F)(F)F)c1 [Compound 189]
Plant response rating, Waterhemp (Waterhemp; 16 g ai/ha): 90 | Plant response rating, Waterhemp (Waterhemp; 31 g ai/ha): 98
